Reference: US20080063628A1, “METHODS TO PROMOTE CELL DIFFERENTIATION” (priority 2006, published 2008)

Columns and labels:
[1] = system: second amniotic fluid-derived cell line; assay: Two sequential high dose trichostatin A treatments (24 h each), gene expression by RT-PCR (Example 8); assay type: cell-based, human; conditions: for Gata1 gene expression / HNF-3 beta gene expression / Insulin gene expression / Pdx-1 gene expression / sox17 gene expression: 1.25 μM 0-24 h + 96-120 h
Protocol: Several cell lines obtained from different amniotic fluid specimens (see Example 14) and pancreas donors (see Example 13) were tested with similar results. Two lines at similar passage number but derived from different amniotic fluid specimens are shown in Table VIII-A and Table VIII-B for this example. One of these cell lines was also used in examples 2 and 4 above. In addition, this example also contains comparison data in Table VIII-C and Table VIII-D for a single pancreatic-derived stromal line grown to early and late passage number.
Amniotic fluid derived cells or pancreatic-derived stromal cells were seeded into 24-well tissue culture plates at a density of 5000/cm^2 and cultured in AMNIOMAX (Invitrogen) or DMEM with 10% FBS respectively under standard cell culture conditions until confluent. After the cells reached confluency, amniotic fluid derived cells were treated at time 0 hours with a dose of 1.25 μM trichostatin A, and pancreatic-derived stromal cells were treated with a dose of 5.0 μM trichostatin A solubilized in DMSO and medium. At time 24 hours, cell cultures underwent a complete medium change to remove all traces of trichostatin A. At time 96 hours, cell cultures were re-fed with fresh medium and received a second dose of trichostatin A at the same concentration as used previously. At time 120 hours, cell cultures again underwent a complete medium change and were cultured for an additional 24 hours or […] total incubation time.
Samples were taken daily for RT-PCR at the times indicated in Table VIII-A to D. The culture media was removed, and samples were rinsed in PBS then collected in RLT with β-mercaptoethanol (Qiagen). RNA was purified using the RNeasy Mini Kit (Qiagen) and RNA quantity and quality were determined using a spectrophotometer. cDNA was made using the iScript cDNA synthesis kit (BioRad).
Samples of 20 ng cDNA were used in each reaction to determine the expression levels of the following genes in amniotic fluid-derived cells: Gata1, HNF-3 beta, Pdx-1, insulin, and Sox17. Similarly, samples of 20 ng cDNA were used in each reaction to determine the expression level of the following genes in pancreatic-derived cells: glucagon, HNF-3 beta, insulin and Pdx-1. Real-Time PCR was performed on the Applied Biosystems 7500, and data was analyzed using the accompanying software according to the methods described in Example 15.
Real-time PCR amplifcation and quantitative analysis. Unless otherwise stated, all reagents were purchased from Applied Biosystems. Real-time PCR reactions were performed using the ABI PRISM™ 7500 Sequence Detection System. TAQMAN™ FAST UNIVERSAL PCR MASTER MIX™ (ABI, CA) was used with 20 ng of reverse transcribed RNA in a total reaction volume of 20 μl. Each cDNA sample was run in duplicate to allow correction of pipetting errors. Primers and FAM-labeled TAQMAN™ probes were used at concentrations of 200 nM. The level of expression for each target gene was normalized using the pre-developed Applied Biosystem's human glyceraldehyde-3-phosphate dehydrogenase (GAPDH) endogenous control kit. Primers and probes were designed using either ABI PRISM PRIMER EXPRESS™ software or a pre-developed ABI gene analysis kit. For each gene, either one of the primers or the probe were designed to be exon-boundary spanning. This eliminated the possibility of the primers/probe binding to any genomic DNA present. The primer and probe sets are listed as follows: Pdx-1 (Hs00426216), Insulin (Hs00355773), glucagon (Hs00174967), and FoxA2 (HNF 3-beta) (Hs00232764). The remaining primers were designed using the PRIMERS program (ABI, CA). After an initial 95° C. incubation for 20 sec, samples were cycled 40 times in two stages: a denaturation step at 95° C. for 3 sec, followed by an annealing/extension step at 60° C. for 30 sec. […]

[2] = system: second amniotic fluid-derived cell line; assay: Two high dose trichostatin A treatments (first 48 h), gene expression by RT-PCR (Example 9); assay type: cell-based, human; conditions: 1.25 μM, following first treatment;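 also: lower cycle number means higher gene expression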
[3] = 1.25 μM, following the second treatment

Question: Which results are given for CC(/C=C/C(=O)NO)=C\[C@@H](C)C(=O)c1ccc(N(C)C)cc1 [trichostatin A]?
Answer: Gata1 gene expression ([1]; 24 hrs): + (detectable between 35 and 40 cycles by RT-PCR); HNF-3 beta gene expression ([1]; 24 hrs): +++ (detectable at less than 35 cycles by RT-PCR with SE less than 0.9); Insulin gene expression ([1]; 24 hrs): nd (not detectable at >40 cycles by RT-PCR); Pdx-1 gene expression ([1]; 24 hrs): +++ (detectable at less than 35 cycles by RT-PCR with SE less than 0.9); sox17 gene expression ([1]; 24 hrs): +++ (detectable at less than 35 cycles by RT-PCR with SE less than 0.9); Gata1 gene expression ([1]; 48 hrs): nd (not detectable at >40 cycles by RT-PCR); HNF-3 beta gene expression ([1]; 48 hrs): +++ (detectable at less than 35 cycles by RT-PCR with SE less than 0.9); Insulin gene expression ([1]; 48 hrs): nd (not detectable at >40 cycles by RT-PCR); Pdx-1 gene expression ([1]; 48 hrs): nd (not detectable at >40 cycles by RT-PCR); sox17 gene expression ([1]; 48 hrs): +++ (detectable at less than 35 cycles by RT-PCR with SE less than 0.9); Gata1 gene expression ([1]; 72 hrs): nd (not detectable at >40 cycles by RT-PCR); HNF-3 beta gene expression ([1]; 72 hrs): +++ (detectable at less than 35 cycles by RT-PCR with SE less than 0.9); Insulin gene expression ([1]; 72 hrs): + (detectable between 35 and 40 cycles by RT-PCR); Pdx-1 gene expression ([1]; 72 hrs): nd (not detectable at >40 cycles by RT-PCR); sox17 gene expression ([1]; 72 hrs): +++ (detectable at less than 35 cycles by RT-PCR with SE less than 0.9); Gata1 gene expression ([1]; 96 hrs): nd (not detectable at >40 cycles by RT-PCR); HNF-3 beta gene expression ([1]; 96 hrs): + (detectable between 35 and 40 cycles by RT-PCR); Insulin gene expression ([1]; 96 hrs): + (detectable between 35 and 40 cycles by RT-PCR); Pdx-1 gene expression ([1]; 96 hrs): nd (not detectable at >40 cycles by RT-PCR); sox17 gene expression ([1]; 96 hrs): +++ (detectable at less than 35 cycles by RT-PCR with SE less than 0.9); Gata1 gene expression ([1]; 120 hrs): + (detectable between 35 and 40 cycles by RT-PCR); HNF-3 beta gene expression ([1]; 120 hrs): +++ (detectable at less than 35 cycles by RT-PCR with SE less than 0.9); Insulin gene expression ([1]; 120 hrs): nd (not detectable at >40 cycles by RT-PCR); Pdx-1 gene expression ([1]; 120 hrs): +++ (detectable at less than 35 cycles by RT-PCR with SE less than 0.9); sox17 gene expression ([1]; 120 hrs): +++ (detectable at less than 35 cycles by RT-PCR with SE less than 0.9); Gata1 gene expression ([1]; 144 hrs): nd (not detectable at >40 cycles by RT-PCR); HNF-3 beta gene expression ([1]; 144 hrs): +++ (detectable at less than 35 cycles by RT-PCR with SE less than 0.9); Insulin gene expression ([1]; 144 hrs): nd (not detectable at >40 cycles by RT-PCR); Pdx-1 gene expression ([1]; 144 hrs): nd (not detectable at >40 cycles by RT-PCR); sox17 gene expression ([1]; 144 hrs): +++ (detectable at less than 35 cycles by RT-PCR with SE less than 0.9); Pdx-1 RT-PCR detection cycle ([1]; 1.25 μM, after the initial treatment): 33 cycles; Insulin RT-PCR detection cycle ([1]; 1.25 μM, after trichostatin A was washed away): 36 cycles; HNF-3 beta RT-PCR detection cycle [1, 3]: 32 cycles; Pdx-1 RT-PCR detection cycle [1, 3]: 32 cycles; HNF-3 beta RT-PCR detection cycle ([1]; 1.25 μM, initial treatment): 35 cycles; HNF-3 beta RT-PCR detection cycle ([1]; 1.25 μM, prior to the second addition): 38 cycles; Gata-1 RT-PCR detection cycle [2]: 38 cycles
